Reference: publication PMC10380083, “Synthesis of Prostate-Specific Membrane Antigen-Targeted Bimodal Conjugates of Cytotoxic Agents and Antiandrogens and Their Comparative Assessment with Monoconjugates” (International Journal of Molecular Sciences, 2023)
*1 amine or outer side, *2 acyl side, *3 side chain or, on linkers, in order; H or OH if unused. Where a SMILES comes first, the peptide text is derived from it. [ ]: non-standard residue; d: D form. The star is where a group is joined. GluureaLys(ε-3-ClBenzyl) = O=C(O)CC[C@H](NC(=O)N[C@@H](CCCCN(Cc1cccc(Cl)c1)*)C(=O)O)C(=O)O; X5 = O=C(O)CC[C@H](NC(=O)N[C@@H](CCCCN(Cc1ccc(C(=O)O)cc1)*)C(=O)O)C(=O)O; X6 = O=C(O)CC[C@H](NC(=O)N[C@@H](CCCCN(Cc1ccc(Br)cc1)*)C(=O)O)C(=O)O; Dolaproine = CO[C@@H]([C@@H]1CCCN1)[C@@H](C)C(=O)O; Dil = CC[C@H](C)[C@H](NC)[C@@H](CC(=O)O)OC; X2 = O=C(CCCc1cn(CCCN[*:1])nn1)[*:2]; PABC = O=C(OCc1ccc(N[*:1])cc1)[*:2]; X1 = C[C@@H](N*)[C@@H](O)c1ccccc1; Cit = NC(=O)NCCC[C@H](N)C(=O)O; Suc = O=C(CCC(=O)[*:2])[*:1]; NMeV = CN[C@H](C(=O)O)C(C)C; Ahx = NCCCCCC(=O)O

Key:
PC-3 cells = assay: In vitro cytotoxicity, MTS assay, PC-3; format: cell-based, human; conditions: 72 h, extremely low PSMA expression, range 0.5 to 800 nM, triplicates
Experimental: (§1) The resulting bimodal conjugates were tested in vitro on three different PCa cell lines. We used LNCaP cells with high PSMA expression, 22Rv1 cells with moderate PSMA expression and PC-3 cells with extremely low PSMA expression. Different levels of PSMA expression in 22Rv1 and LNCaP cell lines allows evaluation of the effect of the level of expression on the toxicity of the target drugs. PSMA-negative cell line PC-3 allows a qualitative assessment of non-specific toxicity of the obtained compounds.
(§2) The cytotoxicity of the investigated substances was tested using the MTS assay with some modifications. Cells were seeded in the 96-well plates (Corning, New York, NY, USA) at concentration of 7000 cells per well for PC-3 culture, 12,000 cells per well for LNCaP cells and 20,000 cells per well for 22Rv1 line. The cells were counted using the automatic cell counter EVE. All cell lines were purchased from the American Type Culture Collection (ATCC, Manassas, VA, USA). After 1 day, serial dilutions of tested substances were added to the cells. Cell culture medium with addition of DMSO in appropriate concentrations was used as a negative control. DMSO (30%) was added in culture medium as a positive control. Cells were then incubated during 72 h at 37 °C and 5% CO2. Later, the culture medium from each well was removed and 20 μL of MTS reagent (CellTiter 96 AQueous Non-Radioactive Cell Proliferation Assay, Promega) were added to each well with 100 μL of new culture medium. After 4 h incubation at 37 °C in darkness, the absorbance of the solution was measured at 490 nm wavelength using Thermo Scientific Multiskan GO spectrometer. Cell viability was calculated as a percentage compared to control cells. The absorbance of MTS reagent in culture medium without cells was taken as zero. […] Experiments were performed in triplicates. Data were analyzed using Prism 9—GraphPad version 9.2.0 software. p values < 0.05 were considered significant.

22Rv1 cells = assay: In vitro cytotoxicity, MTS assay, 22Rv1; format: cell-based, human; conditions: 72 h, moderate PSMA expression, range 0.5 to 800 nM, triplicates
Experimental: as §1, §2

LNCaP cells = assay: In vitro cytotoxicity, MTS assay, LNCaP; format: cell-based; conditions: 72 h, high PSMA expression, range 0.5 to 800 nM, triplicates
Experimental: as §1, §2

[1] = biological target: T1, PSMA (glutamate carboxypeptidase II, GCPII) (Homo sapiens, UniProt Q04609); assay: Inhibition of the NAAG cleavage reaction (affinity to PSMA), LNCaP cell extract; format: biochemical; conditions: SD
T1 construct: endogenous in cells; host or cells: LNCaP cells (Triton X-100 lysate, sonicated, supernatant after 1000g)
T1 sequence (Q04609 whole entry): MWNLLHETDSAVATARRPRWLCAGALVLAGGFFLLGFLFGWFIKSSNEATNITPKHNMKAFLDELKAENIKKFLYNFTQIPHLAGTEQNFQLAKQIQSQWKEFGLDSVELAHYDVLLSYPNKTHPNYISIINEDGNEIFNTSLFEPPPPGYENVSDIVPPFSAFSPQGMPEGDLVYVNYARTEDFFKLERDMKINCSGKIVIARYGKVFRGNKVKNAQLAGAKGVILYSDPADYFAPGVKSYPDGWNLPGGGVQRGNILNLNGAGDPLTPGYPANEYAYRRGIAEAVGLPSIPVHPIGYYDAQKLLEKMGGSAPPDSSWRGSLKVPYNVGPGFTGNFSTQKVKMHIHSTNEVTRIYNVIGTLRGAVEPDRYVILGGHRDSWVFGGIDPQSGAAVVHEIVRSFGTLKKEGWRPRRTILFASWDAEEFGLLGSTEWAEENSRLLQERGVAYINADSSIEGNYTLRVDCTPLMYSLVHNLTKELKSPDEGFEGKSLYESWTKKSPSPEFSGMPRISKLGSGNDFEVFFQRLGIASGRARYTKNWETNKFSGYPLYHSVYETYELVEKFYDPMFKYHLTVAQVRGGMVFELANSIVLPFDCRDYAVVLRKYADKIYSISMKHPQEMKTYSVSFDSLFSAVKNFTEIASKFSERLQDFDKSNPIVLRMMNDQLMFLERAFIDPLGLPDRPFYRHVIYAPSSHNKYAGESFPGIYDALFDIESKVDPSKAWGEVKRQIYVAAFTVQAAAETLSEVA
Experimental: The affinity of the four newly obtained ligands to PSMA was evaluated in vitro by inhibiting the cleavage of N-acetylaspartylglutamic acid (NAAG). One function of PSMA, also known as glutamate carboxypeptidase II (GCPII), is the cleavage of NAAG into N-acetylaspartate and glutamate. PSMA-specific ligands inhibit this reaction by interacting with the protein. Thus, the calculation of the values of half-maximum inhibition (IC50) allows evaluation of the binding efficiency of the synthesized compounds to the protein. The analogues of the obtained ligands 6a–d without a lysine residue in their structure were chosen as comparison ligands. Also, some ligands previously described in the literature were chosen as references.
LNCaP cells were cultured in RPMI medium with 10% FBS (Gibco, Billings, MT, USA), 1xGlutamax (Gibco) and 1x penicillin-streptomycin mixture (Gibco, USA). To suspend the cells, growth medium was removed from the 25 cm^2 vial, the cells were washed with PBS buffer and incubated for 5 min with 0.25% trypsin (1 mL). Trypsin was inactivated with complete growth medium (2 mL), washed with PBS, transferred 10^6 cells to a test tube, and 500 μL of lysis buffer (0.5% Triton X-100, 50 mM Tris-HCl (pH 7.5) and 1× Proteinase Inhibition cocktail) was added. The suspension was incubated for 30 min on ice and sonicated (seven times 7 sec at 20–30 s intervals) on ice to avoid overheating. The suspension was centrifuged for 10 min at 1000g at 4 °C, and the supernatant was used in further analysis.
The inhibition by PSMA ligands was analyzed using a non-radioactive protocol with detection of the glutamate released during the reaction. LNCaP cell line extract (10 μL) was mixed with 2 μL of the appropriate compound preparation. A series of dilutions of 2 nM-100 μM compounds was used for initial testing, with dilution steps of 3–5 times. To the resulting mixture, 1 μL of 100 μM NAAG solution was added. The mixture was incubated for 2 h at 37 °C. After incubation, the mixture was doubled with reaction buffer (13 μL) from the Amplex Red Glutamic Acid Kit (Molecular Probes Inc., Eugene, OR, USA), and the multi-component glutamate detection reaction mixture prepared according to the manufacturer’s protocol (26 μL) was added. Amplex Red stock solution: 5 μL Amplex® Red reagent stock solution, 1.25 μL HRP stock solution, 8 μL L-glutamate oxidase, 2.5 μL L-glutamate pyruvate transaminase, 0.5 μL L-alanine, 483 μL 1× reaction buffer. Incubation was performed for 1 h at 37 °C. The fluorescence of resorufin produced by conjugated glutamate detection kit reactions was detected on a VICTORX5 multidetector plate (Perkin Elmer Inc., Waltham, MA, USA) at an excitation length of 555 nm and detection at 580 nm. As a control for endogenous glutamate levels with replacement of the NAAG solution with water.

[2] = inhibition of NAAG cleavage, LNCaP cell extract, 2 h at 37 °C, glutamate detected with Amplex Red kit (fluorescence)

Row | Structure (SMILES) | CC50, PC-3 (PC-3 cells) [nM] | CC50, 22Rv1 (22Rv1 cells) [nM] | CC50, LNCaP (LNCaP cells) [nM] | IC50 [1, 2] [nM] | IC50 [1] [nM]
1 | CC[C@H](C)[C@@H]([C@@H](CC(=O)N1CCC[C@H]1[C@H](OC)[C@@H](C)C(=O)N[C@H](C)[C@@H](O)c1ccccc1)OC)N(C)C(=O)[C@@H](NC(=O)[C@H](C(C)C)N(C)C(=O)OCc1ccc(NC(=O)[C@H](CCCNC(N)=O)NC(=O)[C@@H](NC(=O)CCCc2cn(CCCNC(=O)[C@H](CCCCN)NC(=O)[C@H](Cc3ccc(O)cc3)NC(=O)[C@H](Cc3ccccc3)NC(=O)CCC(=O)NCCCCCC(=O)N(CCCC[C@H](NC(=O)N[C@@H](CCC(=O)O)C(=O)O)C(=O)O)Cc3ccc(C(=O)O)cc3)nn2)C(C)C)cc1)C(C)C [12c] ({X5-Ahx-Suc}-FYK[X2]V[Cit][PABC][NMeV]V[Dil][Dolaproine]-X1) | >800 | 453.7 ± 9.8 | 177.8 ± 2.2 | – | –
2 | CC[C@H](C)[C@@H]([C@@H](CC(=O)N1CCC[C@H]1[C@H](OC)[C@@H](C)C(=O)N[C@H](C)[C@@H](O)c1ccccc1)OC)N(C)C(=O)[C@@H](NC(=O)[C@H](C(C)C)N(C)C(=O)OCc1ccc(NC(=O)[C@H](CCCNC(N)=O)NC(=O)[C@@H](NC(=O)CCCc2cn(CCCNC(=O)[C@H](CCCCN)NC(=O)[C@H](Cc3ccccc3)NC(=O)[C@H](Cc3ccccc3)NC(=O)CCC(=O)NCCCCCC(=O)N(CCCC[C@H](NC(=O)N[C@@H](CCC(=O)O)C(=O)O)C(=O)O)Cc3ccc(C(=O)O)cc3)nn2)C(C)C)cc1)C(C)C [12d] ({X5-Ahx-Suc}-FFK[X2]V[Cit][PABC][NMeV]V[Dil][Dolaproine]-X1) | >800 | 463.3 ± 8.0 | 197.8 ± 2.7 | – | –
3 | CC[C@H](C)[C@@H]([C@@H](CC(=O)N1CCC[C@H]1[C@H](OC)[C@@H](C)C(=O)N[C@H](C)[C@@H](O)c1ccccc1)OC)N(C)C(=O)[C@@H](NC(=O)[C@H](C(C)C)N(C)C(=O)OCc1ccc(NC(=O)[C@H](CCCNC(N)=O)NC(=O)[C@@H](NC(=O)CCCc2cn(CCCNC(=O)[C@H](CCCCN)NC(=O)[C@H](Cc3ccc(O)cc3)NC(=O)[C@H](Cc3ccccc3)NC(=O)CCC(=O)NCCCCCC(=O)N(CCCC[C@H](NC(=O)N[C@@H](CCC(=O)O)C(=O)O)C(=O)O)Cc3cccc(Cl)c3)nn2)C(C)C)cc1)C(C)C [12a] ({GluureaLys(ε-3-ClBenzyl)-Ahx-Suc}-FYK[X2]V[Cit][PABC][NMeV]V[Dil][Dolaproine]-X1) | >800 | 267.9 ± 3.8 | 157.4 ± 2.0 | – | –
4 | NCCCC[C@H](NC(=O)N[C@@H](CCC(=O)O)C(=O)O)C(=O)O [DCL, (S)-2-(3-((S)-5-amino-1-carboxypentyl)ureido)pentanedioic acid, reference compound] | – | – | – | 547 ± 389 | –
5 | [N-]=[N+]=NCCCNC(=O)[C@H](CCCCN)NC(=O)[C@H](Cc1ccc(O)cc1)NC(=O)[C@H](Cc1ccccc1)NC(=O)CCC(=O)NCCCCCC(=O)N(CCCC[C@H](NC(=O)N[C@@H](CCC(=O)O)C(=O)O)C(=O)O)Cc1ccc(C(=O)O)cc1 [6c, (3S,7S,25S,28S,31S)-31-(4-aminobutyl)-36-azido-25-benzyl-12-(4-carboxybenzyl)-28-(4-hydroxybenzyl)-5,13,20,23,26,29,32-heptaoxo-4,6,12,19,24,27,30,33-octaazahexatriacontane-1,3,7-tricarboxylic acid] | – | – | – | 10 ± 3 | –
6 | [N-]=[N+]=NCCCNC(=O)[C@H](CCCCN)NC(=O)[C@H](Cc1ccc(O)cc1)NC(=O)[C@H](Cc1ccccc1)NC(=O)CCC(=O)NCCCCCC(=O)N(CCCC[C@H](NC(=O)N[C@@H](CCC(=O)O)C(=O)O)C(=O)O)Cc1cccc(Cl)c1 [6a, (3S,7S,25S,28S,31S)-31-(4-aminobutyl)-36-azido-25-benzyl-12-(3-chlorobenzyl)-28-(4-hydroxybenzyl)-5,13,20,23,26,29,32-heptaoxo-4,6,12,19,24,27,30,33-octaazahexatriacontane-1,3,7-tricarboxylic acid] | – | – | – | – | 13 ± 3
7 | [N-]=[N+]=NCCCNC(=O)[C@H](CCCCN)NC(=O)[C@H](Cc1ccccc1)NC(=O)[C@H](Cc1ccccc1)NC(=O)CCC(=O)NCCCCCC(=O)N(CCCC[C@H](NC(=O)N[C@@H](CCC(=O)O)C(=O)O)C(=O)O)Cc1ccc(C(=O)O)cc1 [6d, (3S,7S,25S,28S,31S)-31-(4-aminobutyl)-36-azido-25,28-dibenzyl-12-(4-carboxybenzyl)-5,13,20,23,26,29,32-heptaoxo-4,6,12,19,24,27,30,33-octaazahexatriacontane-1,3,7-tricarboxylic acid] | – | – | – | 5.5 ± 1.7 | –
8 | [N-]=[N+]=NCCCNC(=O)[C@H](CCCCN)NC(=O)[C@H](Cc1ccc(O)cc1)NC(=O)[C@H](Cc1ccccc1)NC(=O)CCC(=O)NCCCCCC(=O)N(CCCC[C@H](NC(=O)N[C@@H](CCC(=O)O)C(=O)O)C(=O)O)Cc1ccc(Br)cc1 [6b, (3S,7S,25S,28S,31S)-31-(4-aminobutyl)-36-azido-25-benzyl-12-(4-bromobenzyl)-28-(4-hydroxybenzyl)-5,13,20,23,26,29,32-heptaoxo-4,6,12,19,24,27,30,33-octaazahexatriacontane-1,3,7-tricarboxylic acid] | – | – | – | – | 11 ± 2
9 | C[C@]12CC[C@H](OC(=O)CCCc3cn(CCCNC(=O)[C@H](Cc4ccc(O)cc4)NC(=O)[C@H](Cc4ccccc4)NC(=O)CCC(=O)NCCCCCC(=O)N(CCCC[C@H](NC(=O)N[C@@H](CCC(=O)O)C(=O)O)C(=O)O)Cc4cccc(Cl)c4)nn3)CC1=CC[C@@H]1[C@@H]2CC[C@]2(C)C(c3cccnc3)=CC[C@@H]12 [II, reference compound] | >800 | >800 | >800 | – | –
10 | CC[C@H](C)[C@@H]([C@@H](CC(=O)N1CCC[C@H]1[C@H](OC)[C@@H](C)C(=O)N[C@H](C)[C@@H](O)c1ccccc1)OC)N(C)C(=O)[C@@H](NC(=O)[C@H](C(C)C)N(C)C(=O)OCc1ccc(NC(=O)[C@H](CCCNC(N)=O)NC(=O)[C@@H](NC(=O)CCCc2cn(CCCNC(=O)[C@H](CCCCN)NC(=O)[C@H](Cc3ccc(O)cc3)NC(=O)[C@H](Cc3ccccc3)NC(=O)CCC(=O)NCCCCCC(=O)N(CCCC[C@H](NC(=O)N[C@@H](CCC(=O)O)C(=O)O)C(=O)O)Cc3ccc(Br)cc3)nn2)C(C)C)cc1)C(C)C [12b] ({X6-Ahx-Suc}-FYK[X2]V[Cit][PABC][NMeV]V[Dil][Dolaproine]-X1) | >800 | 247.8 ± 3.3 | 182.6 ± 2.2 | – | –
